# “And” between values parts separate entries of the source, which are not always exact repeats. Equal values may be shown once. Read-outs that look alike come from different tables or passages of the source.
# How the values were obtained:
# GST-Bcl-B [1] = biological target: T1, GST-Bcl-B (Homo sapiens, UniProt Q9HD36); experiment: biochemical
# T1 sequence (Q9HD36 1-182 limits assumed): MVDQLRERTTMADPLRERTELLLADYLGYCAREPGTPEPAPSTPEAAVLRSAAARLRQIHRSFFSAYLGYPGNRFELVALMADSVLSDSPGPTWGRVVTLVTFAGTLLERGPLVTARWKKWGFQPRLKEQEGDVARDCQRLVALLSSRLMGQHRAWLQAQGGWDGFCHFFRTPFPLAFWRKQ
# GST-Bcl-2 [2] = biological target: T2, GST-Bcl-2 (Homo sapiens, UniProt P10415); experiment: biochemical
# Experimental: (§3) For the Chembridge screen, IC50s for each compound with respect to the Bcl-B/FITC-TR3 (In Hepes/β-glycerophophate/tween-20) fluorescence polarization and the Bcl-2/FITC-TR3 (In PBS+tween-20) fluorescence polarization assays were identified.
# (§4) Fluorescence polarization was then measured using an Analyst HT Multi-Mode Plate Reader (LJL Biosystems, Sunnyvale, Calif.).
# GST-Bcl-B [3] = biological target: T1, GST-Bcl-B; experiment: Bcl-B/FITC-TR3-r8 fluorescence polarization competition (displacement) assay, HTS and dose-response; conditions: for Bcl-B H Coefficient: Hill coefficient of Bcl-B dose-response curve
# GST-Hsp70 = GST-Hsp70 (Homo sapiens, UniProt P0DMV8); experiment: FITC-ATP/GST-Hsp70 fluorescence polarization counter-screen; type: binding; conditions: HSP/FITC-ATP counter screen
# Experimental: Dose-response curves were then generated (fluorescent compounds were eliminated), followed by counter-screening using a biologically unrelated FPA (GST-Hsp70/FITC-ATP).
# A number of assays were then performed to eliminate non-specific or irreproducible hits (FIG. 21). […] Second, compound dose-response curves were generated using the fluorescence polarization assay. […] Finally, 1D-NMR was used to test the compounds for binding to GST-Bcl-B versus GST (as a negative control) (FIG. 22).
# GST-Bcl-2 [4] = biological target: T2, GST-Bcl-2; experiment: Bcl-2/FITC-TR3 fluorescence polarization competition assay (PBS + Tween-20); conditions: Hill coefficient of Bcl-2 dose-response curve
# Experimental: as §3, §4
# GST = biological target: T3, GST (Schistosoma japonicum, UniProt P08515); experiment: 1D 1H-NMR compound binding, GST negative control; conditions: negative control protein; result in words
# T3 construct: made in house; host or cells: Escherichia coli BL21 Star (DE3), pGEX-4T-1
# Experimental: (§1) FIGS. 22A-22F are line graphs showing a ^1H-NMR spectra confirmation of compound binding to Bcl-B. Compounds 5804000, 5954623, and 2011727 were diluted in PBS/D2O buffer to 1000 μM, then incubated with either GST (FIGS. 22A, C, E) or GST-Bcl-B (FIGS. 22B, D, F) at 0, 10 or 20 μM concentrations. FIGS. 22A-B show compound 5804000; FIGS. 22C-D show compound 5954623; and FIGS. 22E-F show the NMR spectra for the negative control compound 2011727. The most prominent peak shift for each compound is shown.
# (§2) NMR experiments were performed at 25° C. on a 500 MHz Bruker Avance spectrometer (Bruker, Madison, Wis.) equipped with a 5 mm TXI probe. […] Reference solutions were then used in titration experiments with GST-Bcl-B or GST. All ^1H NMR spectra were obtained with the carrier position set to the water peak signal using WATERGATE. NMR data were processed and analyzed with MestRe Nova (MestReLab Research, Santiago de Compostela, Spain).
# [5] = tested on: HeLa Tet-On-Bcl-B (HTO2) cells; experiment: Cell viability (ATPlite) in HeLa Tet-On-Bcl-B cells with or without doxycycline; type: cell-based; conditions: Homo sapiens, HeLa, 24 h, 24 h, read-out: concentration required to reduce HeLa Tet-On-Bcl-B cell viability by 50%
# Experimental: FIG. 24A is a photograph of a blot wherein HeLa Tet-On (HTO1) and HeLa Tet-On-Bcl-B (HTO2) cells were treated with or without doxycycline (dox) for 24 h to induce their tetracycline-responsive promoters. Protein lysates were collected, and immunoblotting was used to analyze Bcl-B and Hsc70 (for loading control) expression. In FIG. 24B the cells were treated with or without doxycycline for 24 h, and then with staurosporine at the indicated concentrations for 24 h. Cell viability was measured using ATPlite. In FIG. 24C HeLa Tet-On-Bcl-B (HTO2) cells were treated with or without doxacycline as above. Compounds were then added at the indicated concentrations, and cell viability was measured 24 h later using ATPlite. The data shown represent mean±standard deviation (n=3).
# HeLa Tet-On-Bcl-B cells were generated by stably transfecting the HeLa Tet-On cell line (Clontech, Mountain View, Calif.) with a pTRE2hyg vector (Clontech) containing the Bcl-B gene, using lipofectAMINE PLUS (Invitrogen, Carlsbad, Calif.). Briefly, cells were seeded overnight and transfected at 50% confluency for 3 h. After 24 h, the cells were re-seeded at <10% confluence and cultured in media (DMEM with 10% Tet System Approved FBS (Clontech)) containing G418 (100 μg/mL) and hygromycin B (300 μg/mL) for pTet-On and pTRE2hyg/Bcl-B plasmid maintenance, respectively. Positive foci resistant to both antibiotics were expanded. Colonies were then cultured in the presence or absence of doxycycline (Clontech, 1 μg/mL) for 16 h, and induced Bcl-B expression was confirmed by Western blot analysis. A previously developed polyclonal Bcl-B antibody^17 and an Hsc70 antibody (for protein concentration comparison; Santa Cruz Biotechnology, Santa Cruz, Calif.) were used.
# Cells were seeded in 96-well plates at 5,000 cells/well in 100 μL of growth medium and allowed to incubate for 24 h. Afterwards, cells were incubated in the presence or absence of doxycycline (1 μg/mL) for another 24 h (to induce Bcl-B expression). Compounds were then added, as indicated, in a volume of 5 μL. The next day, cell viability was measured using the ATPlite Luminescence ATP Detection System (PerkinElmer, Waltham, Mass.) according to the manufacturer's specifications.
# GST-Bcl-B [6] = biological target: T1, GST-Bcl-B; experiment: FITC-Puma-BH3/GST-Bcl-B fluorescence polarization displacement assay; type: binding; parameters: their C-terminal transmembrane domains (˜20 amino acids) were deleted to enhance protein solubility; made in house; host or cells: E. coli (BL21 Star (DE3); XL-1 Blue), pGEX-4T-1; conditions: FIG. 23C; result in words
# GST-Bcl-B [7] = biological target: T1, GST-Bcl-B; experiment: FITC-Bim-BH3/GST-Bcl-B fluorescence polarization displacement assay; type: binding; parameters: their C-terminal transmembrane domains (˜20 amino acids) were deleted to enhance protein solubility; made in house; host or cells: E. coli (BL21 Star (DE3); XL-1 Blue), pGEX-4T-1; conditions: FIG. 23D; result in words
# GST-Bcl-B [8] = biological target: T1, GST-Bcl-B; experiment: 1D 1H-NMR compound binding, GST-Bcl-B; parameters: their C-terminal transmembrane domains (˜20 amino acids) were deleted to enhance protein solubility; made in house; host or cells: E. coli (BL21 Star (DE3); XL-1 Blue), pGEX-4T-1; conditions: result in words
# Experimental: as §1, §2
# T2 sequence (P10415 1-218 limits assumed): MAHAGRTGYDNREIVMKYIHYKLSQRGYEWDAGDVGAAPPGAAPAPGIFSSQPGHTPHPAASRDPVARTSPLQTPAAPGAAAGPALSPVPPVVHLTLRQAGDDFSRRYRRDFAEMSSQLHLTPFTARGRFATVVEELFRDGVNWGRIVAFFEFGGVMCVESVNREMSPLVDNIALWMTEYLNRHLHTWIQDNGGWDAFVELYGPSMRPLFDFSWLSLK
# GST-Hsp70, sequence (P0DMV8 whole entry): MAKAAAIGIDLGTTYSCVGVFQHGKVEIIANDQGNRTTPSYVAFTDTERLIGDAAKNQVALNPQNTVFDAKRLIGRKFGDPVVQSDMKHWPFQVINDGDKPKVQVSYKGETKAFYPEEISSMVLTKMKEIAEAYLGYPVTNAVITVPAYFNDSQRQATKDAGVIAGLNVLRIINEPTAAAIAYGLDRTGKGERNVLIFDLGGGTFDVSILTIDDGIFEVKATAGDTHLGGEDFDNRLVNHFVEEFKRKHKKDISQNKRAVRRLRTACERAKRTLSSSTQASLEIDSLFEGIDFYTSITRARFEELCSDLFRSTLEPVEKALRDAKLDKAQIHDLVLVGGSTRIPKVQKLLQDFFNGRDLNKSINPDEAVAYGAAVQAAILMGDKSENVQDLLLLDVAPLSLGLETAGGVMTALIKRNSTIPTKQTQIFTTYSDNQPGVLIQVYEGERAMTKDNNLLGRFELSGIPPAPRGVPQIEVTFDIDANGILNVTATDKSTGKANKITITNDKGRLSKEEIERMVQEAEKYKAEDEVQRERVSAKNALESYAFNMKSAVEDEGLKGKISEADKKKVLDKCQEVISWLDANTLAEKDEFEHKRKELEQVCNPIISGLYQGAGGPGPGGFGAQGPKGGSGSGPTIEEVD
# T3 sequence (P08515 whole entry): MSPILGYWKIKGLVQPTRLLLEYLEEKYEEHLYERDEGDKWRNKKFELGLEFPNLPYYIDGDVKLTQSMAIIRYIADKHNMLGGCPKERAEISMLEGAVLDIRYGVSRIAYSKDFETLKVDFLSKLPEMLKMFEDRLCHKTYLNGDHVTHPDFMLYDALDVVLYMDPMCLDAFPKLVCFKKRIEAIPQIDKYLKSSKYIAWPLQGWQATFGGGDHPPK
compound,measurement,setting,value
O=C(O)Cc1c[nH]c2ccc(O)cc12 [Compound 5106705],IC50,GST-Bcl-B [1],7.88 µM and 7.84 µM
same,IC50,GST-Bcl-2 [2],9.83 µM and 9.78 µM
same,Bcl-B H Coefficient,GST-Bcl-B [3],3.385
Nc1ccc(Oc2ccc(N)c(N)c2)cc1N [Compound 5152592],HSP70 IC50 (Hill),GST-Hsp70,High
same,Bcl-2 H Coefficient,GST-Bcl-2 [4],1.428
same,IC50,GST-Bcl-B [3]; Bcl-B IC50 (g/L),5.37 µM
same,IC50,GST-Bcl-B [3]; Bcl-B IC50 (uM),5.37 µM
same,Bcl-B H Coefficient,GST-Bcl-B [3],1.303
Clc1ccc(C2C=C(c3ccccc3)Nc3ncnn32)cc1 (stereo not shown) [Compound 5223675],HSP70 IC50 (Hill),GST-Hsp70,high
same,IC50,GST-Bcl-B [1],14.2 µM
same,Bcl-B H Coefficient,GST-Bcl-B [3],0.939
O=S(=O)(O)c1cccc2cccc(Nc3ccccc3)c12 [Compound 5255876],IC50,GST-Bcl-2 [2],12.6 µM
same,IC50,GST-Bcl-B [3]; Bcl-B IC50 (g/L),2.94 µM
same,IC50,GST-Bcl-B [3]; Bcl-B IC50 (uM),2.95 µM
same,Bcl-B H Coefficient,GST-Bcl-B [3],2.628
O=C(O)C1Nc2c(Cl)cc(Cl)cc2C2C=CCC12 (stereo not shown) [Compound 5736518],IC50,GST-Hsp70; read-out: HSP70 IC50 (Hill) (converted),37 µM
same,IC50,GST-Bcl-B [1],1.03 µM
same,Bcl-2 H Coefficient,GST-Bcl-2 [4],2.956
same,Bcl-B H Coefficient,GST-Bcl-B [3],1.13
Cc1cc(C)nc(NC(=N)Nc2cccc(N)c2)n1 [Compound 5804000],binding to GST by 1D-NMR,GST,did not bind to GST
same,IC50,[5]; in the absence of Bcl-B (without doxycycline),~148 µM
same,IC50,[5]; in the presence of Bcl-B (with doxycycline),~226 µM
same,IC50,GST-Bcl-B [1],11.3 µM
same,EC50,GST-Bcl-B [3],5.6 µM
same,Bcl-B H Coefficient,GST-Bcl-B [3],1.599
same,displacement of FITC-Puma-BH3 from GST-Bcl-B,GST-Bcl-B [6],did not
same,displacement of FITC-Bim-BH3 from GST-Bcl-B,GST-Bcl-B [7],did not
same,binding to GST-Bcl-B by 1D-NMR,GST-Bcl-B [8],bound to GST-Bcl-B in a concentration dependent manner

# From patent US20090118135A1, “METHODS AND COMPOUNDS FOR REGULATING APOPTOSIS” (The Burnham Institute, priority 2007, published 2009)
